Data published in patent publication US8906897B2, “Antimicrobial agents based on hemin derivatives” (Obschestvo S Ogranichennoi Otvetstvennostiyu …, priority 2009, dated 2014).
Non-standard residues stand in square brackets, D forms with d. Residues, ends and D or L forms follow the SMILES beside them. Orn = NCCC[C@H](N)C(=O)O

Assays:
[1] = system: Cryptococcus neoformans No. 3465; assay: Antifungal activity, culture growth with pH indicator; type: cell-based; parameters: key: (−) No growth; the indicator is blue; (±) Weak growth; the indicator is yellow, but the precipitate of grown cells looks as a diffuse spot; (+) Strong growth; the indicator is yellow, and the cell precipitate looks as a compact spot
Protocol: (§1) The subjects of action were Cryptococcus neoformans No. 3465 museum strain cells and Candida albicans No. 927 museum strain cells grown for one day on a glucose-peptone-yeast medium at 32° C. The reference compounds were the following antimycotics: pimafucin, amphotericin, and fluconazole.
(§2) Experiments were carried out on round-bottomed 96-well plates (Lenmedpolimer) in two replicas. To the first column (0), added was 10 μL of the stock solution of a water-soluble agent with concentrations of 10^−2 to 10^−3 mol/L; to the second column, added was also the same 10 μL plus 10 μL of the solvent corresponding to the given compound, suspended, 10 μL was transferred to the next well, and so on to the 8th well of the row. Stock solutions of water-insoluble compounds of general formula (I) (compounds V, VIII, XII, XIII, XIV, and hemin) were prepared in DMSO and were diluted with DMSO and the medium. DMSO concentrations in the reaction mixture in a well were ≦5%.
(§3) Then, to every well added was 190 μL of a Cr. neoformans cell culture suspension in a synthetic nutritional medium (so that the final cell concentration was approximately 10^3 CFU/mL), this medium containing Bromocresol Blue as a pH-indicator (pH: 5.5; indicator color: blue). As pH reduced to 4.5, the indicator in the culture changed its color to yellow, thereby indicating fungal cell growth. The synthetic medium comprised the following components: salts, amino acids, microelements, vitamins, an antibiotic, and glucose (30 components altogether) [Yarrow, D., “Methods for the Isolation, Maintenance and Identification of Yeasts,” in: The Yeasts. A Taxonomic Study, Ed. by Kurtsman, C. P, and Fell, M., Elsevier, 1998, pp. 77-100]. After being inoculated with a Cr. neoformans cell suspension, the plate was incubated at 32° C. for 1 h with stirring, then transferred to a stationary thermostat and incubated for two and five days at 27° C. After being inoculated with a C. albicans cell suspension, the plates were incubated for 1 h at 32° C. with stirring, then transferred to a stationary thermostat and incubated for one and four days at 27° C.

human leukocytes = assay: Cytotoxic activity against human leukocytes; details: for toxic effect on human blood leukocytes (in words): concentrations of up to 1 mM, 3 h
Protocol: Total leukocytes were isolated from human blood by unforced sedimentation using freshly collected venous blood from a healthy donor.
Blood (10 mL) added with 10 units/mL heparin was exposed for 2.5 h in the dark at a temperature of 15 to 18° C. A light-colored liquid supernatant (4 mL) was collected over the layer of sedimenting erythrocytes, washed three times with balanced Hanks's salt solution, and resuspended in the RPMI-1640 medium (added with 8% fetal bovine serum, 2 mM L-glutamine, and 10 mM HEPES; hereinafter, the complete medium).
The concentrations of leukocytes and erythrocytes in the suspension were determined by counts in Goryachev's chamber, after which the suspension was adjusted to a leukocyte concentration of (1.0±0.1)×10^6 cells/mL with the complete medium.
To determine the cytotoxicity of the tested compounds for human leukocytes, the cell suspension was transferred to wells of sterile 96-well plates, tested compounds were added with serial twofold dilutions (the range of tested concentrations was from 3.2 to 100 μM for GrD and gramicidin S; from 8 to 500 μM for compound XIII; and from 8 to 1000 μM for compounds V, VI, VII, VIII, IX, X, XI, XIV, XV, XIX, and Hem), and the mixture was carefully stirred. The experiment was performed in two replicas.
As controls served cells added with an equivalent amount of the solvent in which tested compounds were prepared, namely: water for compounds VII and X; an aqueous solution of DMSO for compounds V, VI, VIII, and IX; and DMSO for GrD, gramicidin S, Hem, XI, XIII, XIV, XV, and XIX. An additional control was an additive-free leukocyte suspension.
Cells were incubated with tested compounds for 3 h (37° C., 5% CO2, 100% humidity). Leukocyte death values were quantified using fluorescence microscopy. Staining with propidium iodide (it permeates only into dead cells nuclei) and Hoechst 33342 (it stains all nuclei) was used to recognize dead and living cells. Cells were incubated for 15 min in plates with propidium iodide and Hoechst 33342 (37° C., 5% CO2), and then the plates were placed under a microscope for analysis.
The dead cell fraction was derived from the fluorescence images of cells obtained in the blue (Hoechst 33342) and red (propidium iodide) spectral ranges using an Axio Observer (Zeiss, Germany) fluorescence microscope equipped with a 10× objective lens (Plan-Neofluar 10×/0.3). The following sets of fluorescence filters were used. For propidium iodide: a 530/585-nm bandpass excitation filter, a 600-nm cut-off dichroic minor, and a 615-nm longpass barrier filter for analysis. For Hoechst 33342: a 359/372-nm bandpass excitation filter, a 395-nm cut-off dichroic mirror, and a 397-nm longpass barrier filter for analysis.
A digital camera recorded three types of cell images: (a) an image in the transmitted white light; (b) a blue fluorescence image obtained with UV excitation, and (c) a red fluorescence image obtained with green light excitation. At least four fields of view were photographed per well in various regions of a well.

Candida albicans No. 927 = assay: Antifungal activity, culture growth with pH indicator; type: cell-based; parameters: key to Test culture growth at various dilutions of the agent: (−) No growth; the indicator is blue; (±) Weak growth; the indicator is yellow, but the precipitate of grown cells looks as a diffuse spot; (+) Strong growth; the indicator is yellow, and the cell precipitate looks as a compact spot
Protocol: as §1, §2, §3

[2] = dilution : 16 of 5.00 × 10^−4 M
[3] = dilution : 32 of 5.00 × 10^−4 M
[4] = dilution : 64 of 5.00 × 10^−4 M
[5] = dilution : 128 of 5.00 × 10^−4 M

Row | Molecule | Test culture growth at various dilutions of the agent on day 2 ([1]; dilution 0: 5.00 × 10^−4 M) | Test culture growth at various dilutions of the agent on day 2 ([1]; dilution : 2 of 5.00 × 10^−4 M) | Test culture growth at various dilutions of the agent on day 2 ([1]; dilution : 4 of 5.00 × 10^−4 M) | Test culture growth at various dilutions of the agent on day 2 ([1]; dilution : 8 of 5.00 × 10^−4 M) | Test culture growth at various dilutions of the agent on day 2 [1, 2] | Test culture growth at various dilutions of the agent on day 2 [1, 3] | Test culture growth at various dilutions of the agent on day 2 [1, 4] | Test culture growth at various dilutions of the agent on day 2 [1, 5] | toxic effect on human blood leukocytes (in words) (human leukocytes) | Test culture growth at various dilutions of the agent (Candida albicans No. 927; dilution 0: 1 × 10^−4 M) | Test culture growth at various dilutions of the agent (Candida albicans No. 927; dilution : 2 of 1 × 10^−4 M) | Test culture growth at various dilutions of the agent (Candida albicans No. 927; dilution : 4 of 1 × 10^−4 M) | Test culture growth at various dilutions of the agent (Candida albicans No. 927; dilution : 8 of 1 × 10^−4 M) | Test culture growth at various dilutions of the agent (Candida albicans No. 927; dilution : 16 of 1 × 10^−4 M) | Test culture growth at various dilutions of the agent (Candida albicans No. 927; dilution : 32 of 1 × 10^−4 M) | Test culture growth at various dilutions of the agent (Candida albicans No. 927; dilution : 64 of 1 × 10^−4 M) | further results
1 | C[C@@H]1[C@H](O)[C@@H](C)/C=C/C=C/C=C/C=C/C=C/C=C/C=C/[C@H](O[C@@H]2O[C@H](C)[C@@H](O)[C@H](N)[C@@H]2O)C[C@@H]2O[C@](O)(C[C@@H](O)C[C@@H](O)[C@H](O)CC[C@@H](O)C[C@@H](O)CC(=O)O[C@H]1C)C[C@H](O)[C@H]2C(=O)O [Amphotericin B, reference compound] | −** | − | − | − | − | − | − | − |  |  |  |  |  |  |  |  | 
2 | C=CC1=C(C)c2cc3[n-]c(cc4nc(cc5[n-]c(cc1n2)c(C)c5CCC(=O)NCCC(=O)N[C@@H](Cc1c[nH]cn1)C(=O)O)C(CCC(=O)NCCC(=O)N[C@@H](Cc1c[nH]cn1)C(=O)O)=C4C)c(C)c3C=C.[Cl-].[Fe+3] [Compound X] |  |  |  |  |  |  |  |  | did not cause the death |  |  |  |  |  |  |  | Death of leukocytes in the presence of 1 mM of compound (human leukocytes; 1 mM, 3 h incubation): 4.9 ± 0.3%
3 | OC(Cn1cncn1)(Cn1cncn1)c1ccc(F)cc1F [Fluconazole, reference compound] | ±** | ± | ± | + | + | + | + | + |  |  |  |  |  |  |  |  | 
4 | CC(C)C[C@@H]1NC(=O)[C@H](CCCN)NC(=O)[C@H](C(C)C)NC(=O)[C@@H]2CCCN2C(=O)[C@@H](Cc2ccccc2)NC(=O)[C@H](CC(C)C)NC(=O)[C@H](CCCN)NC(=O)[C@H](C(C)C)NC(=O)[C@@H]2CCCN2C(=O)[C@@H](Cc2ccccc2)NC1=O [Gramicidin S, reference compound] (cyclo(L[dF]PV[Orn]L[dF]PV[Orn])) |  |  |  |  |  |  |  |  | fully due to the toxic effect of the solvent |  |  |  |  |  |  |  | 
5 | C[C@@H]1C/C=C/C=C/C=C/C=C/[C@H](O[C@@H]2O[C@H](C)[C@@H](O)[C@H](N)[C@@H]2O)C[C@@H]2O[C@](O)(C[C@@H](O)C[C@H]3O[C@@H]3/C=C/C(=O)O1)C[C@H](O)[C@H]2C(=O)O [Pimafucin, reference compound] |  |  |  |  |  |  |  |  |  | − | − | − | − | − | + | + | 
6 | N^α-[6(7)-(Protohemin IX)-yl]-ArgArgTrpTrpArgPhe-OH ({protohemin IX}-RRWWRF-OH) [Compound XX] |  |  |  |  |  |  |  |  |  | ± | ± | ± | ± | ± | ± | ± | 
